Laboratory results from US20240350454A1, “BACTERIAL EFFLUX PUMP INHIBITORS AND METHODS OF USE” (THE REGENTS OF THE UNIVERSITY OF COLORADO, priority 2021, published 2024).

Key:
Format in all cases: cell-based
A. baumannii MB306 = test: Chloramphenicol MIC with selected compound in MHB; details: Acinetobacter baumannii, antibiotic alone (row None), MHB
Description: (§1) MIC for the antibiotic alone (i.e., in the absence of the disclosed compounds) is provided in the first row labeled “None”. […] […] […] Thus, the compounds of the disclosure may be used to potentiate the activity of antibiotics that have lost their efficacy due to efflux.

E. cloacae BAA-2341 = test: Chloramphenicol MIC with selected compound in MHB; details: Enterobacter cloacae, BAA2341, antibiotic alone (row None), MHB
Description: as §1

A. baumannii MB309 = test: Chloramphenicol MIC with selected compound in MHB; details: Acinetobacter baumannii, antibiotic alone (row None), MHB
Description: as §1

K. pneumoniae BAA-2342 = test: Chloramphenicol MIC with selected compound in MHB; details: Klebsiella pneumoniae, BAA2342, antibiotic alone (row None), MHB
Description: as §1

[1] = system: P. aeruginosa Focus MB0477; test: Chloramphenicol MIC with selected compound in MHB; details: Pseudomonas aeruginosa, FOCUSMB0477, antibiotic alone (row None), MHB
Procedure: (§2) MIC for the antibiotic alone (i.e., in the absence of the disclosed compounds) is provided in the first row labeled “None”. […] […] At this concentration (50 μg/mL), the compounds of the disclosure lacked intrinsic antibacterial activity but a significant improvement in efficacy was still observed. Thus, the compounds of the disclosure may be used to potentiate the activity of antibiotics that have lost their efficacy due to efflux.

E. coli BAA-2340 = test: Chloramphenicol MIC with selected compound in MHB; details: Escherichia coli, BAA2340, antibiotic alone (row None), MHB
Procedure: as §2

K. pneumoniae BAA-1705 = test: Ciprofloxacin MIC with selected compound in MHB; details: Klebsiella pneumoniae, BAA1705, read-out: Ciprofloxacin MIC, antibiotic alone (row None), MHB
Procedure: as §2

RAW264.7 macrophages = details: mouse, 16 h
Description: (§3) Murine macrophage-like RAW 264.7 cells and HeLa human epithelial cells were obtained from the American Type Tissue Collection. BMDMs were isolated as previously described. Briefly, marrow was flushed from the femurs of 1- to 4-month-old 129SvEvTac mice (Taconic Laboratories) bred in-house. Mononuclear cells were separated using Histopaque-1083 (Sigma), washed, and directly seeded into assay plates at 1×10^5 cells/ml in complete medium supplemented with 35% conditioned media from 3T3 cells expressing MCSF. Media were refreshed three days later. After 1 week, media were replaced with 100 μL fresh media and cells were infected as described below. All three types of cells were grown in DMEM high glucose (Sigma) supplemented with 10% fetal bovine serum, 2 mM L-glutamine, 1 mM sodium pyruvate, 10 mM HEPES, and 50 μMβ-mercaptoethanol. Cells were maintained in a 5% CO2 humidified atmosphere at 37° C. For screening, frozen aliquots of RAW 264.7 were thawed and allowed to expand for three days prior to seeding; other experiments were performed with cultures between passages four and 20.
SAFIRE—RAW264.7 macrophages (7×103 in 40 μL or 5×104 in 100 μL) were seeded, respectively, in 384- or 96-well black-walled glass-bottomed plates (Brooks Automation). Twenty four hours post-seeding, bacteria in 20 or 50 μL PBS were added to a final concentration of 1×10^7 CFU/mL, conditions yielding infection of approximately 70% of macrophages at 18 hours post-infection with minimal macrophage toxicity. The sifB::gfp bacterial reporter strain was used to minimize green signal from extracellular bacteria. […] At two hours post-infection, 200 or 500 nL compound was added using a pin tool (CyBio) to yield a final concentration of 25 μM. Each assay plate included rifampicin and DMSO controls. In some experiments, media were removed and replaced with fresh media containing 40 μg/mL gentamicin and increasing concentrations of the compounds of the disclosure. At 17.5 hours post-infection, PBS containing MitoTracker Red CMXRos (Life Technologies) was added to a final concentration of 300 nM or 100 nM, for 384- or 96-well, respectively. Thirty minutes later, 16% paraformaldehyde was added to a final concentration of […] and incubated at room temperature for 15 minutes. Wells were washed twice with PBS and stained for 20 minutes with 1 μMDAPI; wells were washed twice and stored in 90% glycerol in PBS until imaging. The Z′-factor of the screening platform was 0.59 and 0.48 in 96-well and 384-well plates, respectively, within published ranges for complicated cell-based screens.
In addition, toxicity was measured according the following procedure: 1) analyzing macrophage cell morphology; and 2) using MATLAB to count cells (cells that lift up and float after treatment are not within the appropriate Z plane to be counted, and thus are considered dead). If 70% of the cells are adherent (as measured by comparing the number of cells before and after treatment), the compound is considered not toxic. Compounds that pass #1 and #2 above are considered to have a toxicity “>50 μM”. […]

[2] = system: S. enterica serovar Typhimurium SL1344 sifB::gfp in RAW264.7 macrophages; test: SAFIRE assay, intracellular bacterial load in macrophages; details: Salmonella enterica
Procedure: The following experiments were performed using the SAFIRE assay described in U.S. Publication 2020/0022961, which is incorporated by reference in its entirety for all purposes. SAFIRE (Screen for Anti-infectives using Fluorescence microscopy of IntracellulaR Enterobacteriaceae) uses cell culture as a surrogate to identify compounds that prevent intracellular replication of a model Gram-negative bacterial human pathogen. The method identifies compounds that prevent bacterial growth in broth culture and compounds that decrease the load of Gram-negative bacteria inside of macrophages at concentrations≤10 μM but have no effect on bacterial growth in standard Mueller Hinton broth (MHB) at 100 μM. Thus, SAFIRE enables the discovery of compounds that are effective against Gram-negative bacteria in host cells and in whole animals, whether or not they are antibacterial in broth.
The wild-type S. enterica serovar Typhimurium strain, SL1344, was initially isolated from the blood of an infected calf. For screening and validation in macrophages, SL1344 sifB::gfp was grown in Luria-Bertani Broth (LB) with 30 μg/ml streptomycin and 30 μg/ml kanamycin to saturation overnight, diluted to an OD of 0.001 and frozen in 100 μL aliquots in 20% glycerol at −80° C. Prior to infection, aliquots were grown in 5 mL cultures of LB with 30 μg/ml streptomycin and 30 μg/ml kanamycin for 18 hours at 37° C. with aeration. Bacterial strains were routinely grown in LB with antibiotics: 30 μg/ml streptomycin, 30 μg/ml kanamycin, 50 μg/ml ampicillin, 10 μg/ml tetracycline, and/or 1.15 μg/ml meropenem. The acrAB::kan and macAB::kan strains were constructed according to known methods. S. enterica subsp. enterica, serovar Typhimurium strain S10801, NR-22067 is a multidrug resistant isolate from a calf with sepsis. This strain and others as indicated were obtained through BEI resources, NIAID, NIH.
as §3
SAFIRE—RAW264.7 macrophages (7×103 in 40 μL or 5×104 in 100 μL) were seeded, respectively, in 384- or 96-well black-walled glass-bottomed plates (Brooks Automation). Twenty four hours post-seeding, bacteria in 20 or 50 μL PBS were added to a final concentration of 1×10^7 CFU/mL, conditions yielding infection of approximately 70% of macrophages at 18 hours post-infection with minimal macrophage toxicity. The sifB::gfp bacterial reporter strain was used to minimize green signal from extracellular bacteria. […] At two hours post-infection, 200 or 500 nL compound was added using a pin tool (CyBio) to yield a final concentration of 25 μM. Each assay plate included rifampicin and DMSO controls. In some experiments, media were removed and replaced with fresh media containing 40 μg/mL gentamicin and increasing concentrations of the compounds of the disclosure. […]

E. Cloacae MB315 = test: PMB MIC with selected compound in MHB; details: Enterobacter cloacae, selected compound 50 μg/mL in MHB
Procedure: as §2

O=C(N[C@H](CO)[C@H](O)c1ccc([N+](=O)[O-])cc1)C(Cl)Cl [Chloramphenicol, chloramphenicol]
MIC (A. baumannii MB306): > 64 mg/L | MIC (E. cloacae BAA-2341): 16 mg/L | MIC (A. baumannii MB309): > 64 mg/L | MIC (K. pneumoniae BAA-2342): 64 mg/L | MIC [1]: 64 mg/L | MIC (E. coli BAA-2340): 64 mg/L

O=C(O)c1cn(C2CC2)c2cc(N3CCNCC3)c(F)cc2c1=O [Ciprofloxacin, ciprofloxacin]
MIC (K. pneumoniae BAA-1705): > 64 mg/L

NC1CCN(CC(O)COc2ccc(Cl)c(Cl)c2)C1 (centres unmarked) [Compound 1]
Toxicity (RAW264.7 macrophages): >50 µM | IC50 [2]: < 1 µM | MIC (E. Cloacae MB315): 32 mg/L

NC1CCN(C[C@H](O)COc2ccc(Cl)c(Cl)c2)C1 (some centres unmarked) [Compound 2]
Toxicity (RAW264.7 macrophages): >50 µM | IC50 [2]: < 1 µM

NC1CCN(C[C@@H](O)COc2ccc(Cl)c(Cl)c2)C1 (some centres unmarked) [Compound 3]
Toxicity (RAW264.7 macrophages): >50 µM | IC50 [2]: < 1 µM | MIC (E. Cloacae MB315): 32 mg/L

NC1CCN(CC(O)COc2ccc(Cl)c(Cl)c2)CC1 (centres unmarked) [Compound 4]
Toxicity (RAW264.7 macrophages): <25 µM | IC50 [2]: < 1 µM | MIC (E. Cloacae MB315): 16 mg/L

OC(COc1ccc(Cl)c(Cl)c1)CN1CCC(n2ccnc2)CC1 (centres unmarked) [Compound 5]
Toxicity (RAW264.7 macrophages): >50 µM | IC50 [2]: < 1 µM

NC1CCN(CC(O)COc2ccc(Cl)cc2)CC1 (centres unmarked) [Compound 6]
Toxicity (RAW264.7 macrophages): >50 µM | IC50 [2]: < 1 µM

NC1CCN(CC(O)COc2ccc(Cl)cc2Cl)CC1 (centres unmarked) [Compound 7]
Toxicity (RAW264.7 macrophages): <50 but >25 μM | IC50 [2]: < 1 µM | MIC (E. Cloacae MB315): 32 mg/L

NC1CCN(CC(O)COc2c(Cl)cccc2Cl)CC1 (centres unmarked) [Compound 8]
Toxicity (RAW264.7 macrophages): >50 µM | IC50 [2]: < 1 µM

N[C@@H]1CCN(CC(O)COc2ccc(Cl)c(Cl)c2)C1 (some centres unmarked) [Compound 9]
Toxicity (RAW264.7 macrophages): >50 µM | IC50 [2]: < 1 µM
